Laboratory results reported in article PMC4314399 (Cell calcium, 2014).
Like-named read-outs stand apart in the source and are kept apart here.

Columns and labels:
Orai1 [1] = target: T1, Orai1 (Homo sapiens, UniProt Q13586+Q96D31); assay: fura-2 Ca2+ add-back; type: cell-based
Orai1 [2] = target: T1, Orai1; assay: fura-2 Ca2+ add-back; type: cell-based; remark: listed apart in the source

T1 sequence (Q96D31 whole entry): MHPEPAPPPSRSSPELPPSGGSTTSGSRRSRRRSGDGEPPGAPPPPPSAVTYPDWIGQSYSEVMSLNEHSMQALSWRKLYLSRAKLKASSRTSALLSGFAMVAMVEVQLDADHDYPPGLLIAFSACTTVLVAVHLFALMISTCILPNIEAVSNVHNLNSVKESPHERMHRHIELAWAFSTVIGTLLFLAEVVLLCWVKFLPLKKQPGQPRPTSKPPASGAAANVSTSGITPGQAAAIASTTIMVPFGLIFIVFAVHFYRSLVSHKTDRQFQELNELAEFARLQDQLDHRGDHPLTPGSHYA
T1 sequence (Q13586 23-685): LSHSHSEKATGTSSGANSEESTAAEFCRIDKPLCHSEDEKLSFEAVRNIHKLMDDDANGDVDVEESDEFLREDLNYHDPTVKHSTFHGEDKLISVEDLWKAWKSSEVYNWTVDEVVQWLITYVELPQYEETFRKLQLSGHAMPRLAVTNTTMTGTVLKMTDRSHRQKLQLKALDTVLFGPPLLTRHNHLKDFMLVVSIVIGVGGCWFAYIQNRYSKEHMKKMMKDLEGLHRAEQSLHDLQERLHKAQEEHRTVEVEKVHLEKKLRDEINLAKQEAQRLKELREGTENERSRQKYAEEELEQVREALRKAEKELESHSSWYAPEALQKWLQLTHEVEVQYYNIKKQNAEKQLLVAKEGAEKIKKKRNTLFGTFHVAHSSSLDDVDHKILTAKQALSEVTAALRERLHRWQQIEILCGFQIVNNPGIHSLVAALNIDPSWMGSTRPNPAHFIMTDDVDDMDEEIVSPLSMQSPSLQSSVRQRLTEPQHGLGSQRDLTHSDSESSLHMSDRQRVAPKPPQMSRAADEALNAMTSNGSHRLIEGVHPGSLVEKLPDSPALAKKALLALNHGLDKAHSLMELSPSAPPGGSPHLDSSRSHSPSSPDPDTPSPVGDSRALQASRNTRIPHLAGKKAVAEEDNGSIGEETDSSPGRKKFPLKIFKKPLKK

IC50 (Orai1 [1])	IC50 (Orai1 [2])	Substance
~600 nM	–	DPB163-AE
–	~200 nM	DPB162-AE
